Columns and labels:
Alternaria solani = experiment: In vivo preventive test on Alternaria solani (tomato); settings: 100 ppm, evaluated 3 days after inoculation
Description: Solvent: 24.5 parts by weight of acetone
• 24.5 parts by weight of N,N-dimethylacetamide Emulsifier: 1 part by weight of alkylarylpolyglycol ether
To produce a suitable preparation of active compound, 1 part by weight of active compound is mixed with the stated amounts of solvent and emulsifier, and the concentrate is diluted with water to the desired concentration.
To test for preventive activity, young plants are sprayed with the preparation of active compound at the stated rate of application. After the spray coating has dried on, the plants are inoculated with an aqueous spore suspension of Alternaria solani. The plants are then placed in an incubation cabinet at approximately 20° C. and a relative atmospheric humidity of 100%.
The test is evaluated 3 days after the inoculation. 0% means an efficacy which corresponds to that of the untreated control while an efficacy of 100% means that no disease is observed.
Under these conditions, high (at least 90%) protection is observed at a dose of 100 ppm of active ingredient with the following compound from table B: […]

Alternaria brassicae = experiment: In vivo preventive test on Alternaria brassicae (leaf spot on radish); settings: Table C1, 500 ppm, radish plants, grading 6 days after contamination
Description: The active ingredients tested are prepared by homogenization in a mixture of acetone/tween/DMSO, and then diluted with water to obtain the desired active material concentration.
Radish plants (“Pernod Clair” variety), sown in starter cups on a 50/50 peat soil pozzolana substrate and grown at 17° C., are treated at the cotyledon stage by spraying with the active ingredient prepared as described above. Plants, used as controls, are treated with the mixture of acetone/tween/DMSO/water not containing the active material.
After 24 hours, the plants are contaminated by spraying the cotyledons with an aqueous suspension of Alternaria brassicae spores (50 000 spores per mL). The spores are collected from a 15-day-old culture.
The contaminated radish plants are incubated at 20° C. and at 100% relative humidity.
Grading (% of efficacy) is carried out 6 days after the contamination, in comparison with the control plants.
Under these conditions, high (at least 80%) to excellent (at least 90%) protection is observed at a dose of 500 ppm of active ingredient with the following compounds from table C1: […]

Cc1nn(C)c(F)c1C(=O)N(C1CC1)C(C)c1ccccc1C1=CCCC1 (racemic) [I.1] was tested, and the Efficacy (Alternaria solani) was 94% and the Efficacy (Alternaria brassicae) was 98%.

From patent US9540314B2, “N-cycloalkyl-N-[(cycloalkenylphenyl)methylene]-(thio) carboxamide derivatives” (BAYER INTELLECTUAL PROPERTY GMBH, priority 2012, dated 2017)
